≈ marks a conversion by molar mass, not a printed value. Read-outs that look alike come from different tables or passages of the source.

In one series the test system is U251 cells. Nature of the series: Proliferation assay on U251 cells. The format is cell-based, human. The conditions noted are these: 72 h, viable cells vs untreated. Here is the method:
(§1) U87 and U251 cells were purchased from European Collection of Cell Cultures (ECACC, Salisbury, UK) and were cultured in DMEM medium supplemented with 10% Foetal Bovine Serum. In order to determine antiproliferative effect of drugs tumor cells were seeded at 2×10^5 cells/ml density and treated with compounds at indicated concentrations. The cultures were maintained at 37° C. in 5% v/v CO2 for 72 h. Cell number and viability were evaluated by Trypan blue exclusion test. Viable cells were expressed as percentage respect to cells treated with vehicle (=100%). Mean and SD values of at least three different experiments are shown.
(§2) U87 and U251 cells were purchased from European Collection of Cell Cultures (ECACC, Salisbury, UK) and were cultured in DMEM medium supplemented with 10% Foetal Bovine Serum. In order to determine antiproliferative effect of drugs tumor cells were seeded at 2×10^5 cells/ml density and treated with compounds at indicated concentrations. The cultures were maintained at 37° C. in 5% v/v CO2 for 72 h. Cell number and viability were evaluated by Trypan blue exclusion test. Viable cells were expressed as percentage respect to untreated cells (=100%/). Mean and SD values of at least three different experiments are shown.

A further series can be described thus: PAMPA, BBB permeability. The settings on record: for PAMPA BBB (MR %): Membrane Retention; for Papp at 5 h, 0.5 mM: PAMPA, pH 7.4. Background: PAMPA measures passive passage across an artificial lipid membrane.
The nature of series [1]: PAMPA, intestinal (GI) permeability. The conditions noted are these: for PAMPA GI (MR %): Membrane Retention; for Papp at 5 h, 0.5 mM: pH 7.4.
Experimental: (§4) Donor solution (0.5 mM) was prepared by diluting 1 mM dimethylsulfoxide (DMSO) compound stock solution using phosphate buffer (pH 7.4, 0.025 M). […] Donor solution (150 μL) was added to each well of the filter plate. To each well of the acceptor plate were added 300 μL of solution (50% DMSO in phosphate buffer). All compounds were tested in three different plates on different days. The sandwich was incubated for 5 h at room temperature under gentle shaking. After the incubation time, the plates were separated, and samples were taken from both receiver and donor sides and analyzed using LC with UV detection at 280 nm.
(§5) Permeability (Papp) for PAMPA was calculated according to the following equation, obtained from Wohnsland and Faller^27 and Sugano et al.^28 equation with some modification in order to obtain permeability values in cm s^−1,
(§6) Drug concentration is estimated by using the peak area integration. Membrane retentions (%) were calculated according to the following equation:
(§7) where r is the ratio between drug concentration in the acceptor and equilibrium concentration, D, A, and Eq represented drug concentration in the donor, acceptor and equilibrium solution, respectively.
(§8) Donor solution of tested compounds (0.5 mM) was prepared by diluting 1 mM dimethylsulfoxide (DMSO) compound stock solution using phosphate buffer (pH 7.4, 25 mM). […] Donor solution (150 μL) was added to each well of the filter plate. To each well of the acceptor plate were added 300 μL of solution (50% DMSO in phosphate buffer). Compounds was tested in three different plates on different days. The sandwich was incubated for 5 h at room temperature under gentle shaking.
(§9) Permeability (Papp) for PAMPA was calculated according to the following equation, obtained from Wohnsland and Faller and Sugano et al.^27, 28.
(§10) Drug concentration is estimated by using the peak area integration. Membrane retention (%) was calculated according to the following equation:
A short description of the next series: Water solubility assay. The conditions noted are these: for H2O Sol.: Table 8, 20° C., 24 h; for solubility at 24 h / solubility thermodynamic at 24 h: water, 20 °C, thermodynamic from solid.
Series [2] in a line: Microsomal stability assay. The settings on record: for Metabolic Stab. %: percentage of unmodified drug, Table 8.
For another series, the system named is SH-SY5Y cells. Nature of the series: Antiproliferative activity on neuroblastoma human cell line SH-SY5Y. The conditions noted are these: 72 h, viable cells vs untreated. The format is cell-based. Here is the method:
(§3) In vitro experiments were carried out using the human neuroblastoma cell line SH-SY5Y. Cells were purchased from American Type Culture Collection (ATCC, Manassas, Va., USA) and were cultured in DMEM medium supplemented with 100/Foetal Bovine Serum. In order to determine antiproliferative effect of drugs SH-SY5Y cells were seeded at 2×10^5 cells/ml density and treated with compounds at increasing concentrations from 0.01 to 50 μM. The cultures were maintained at 37° C. in 5% v/v CO2 for 72 h. Cell number and vitality were evaluated using the automatic cell counter NucleoCounter® (Chemometec, Denmark). Results from the NucleoCounter represented either total or non-viable cell concentration, depending on the sample preparation indicated by manufacturer.
as §3, with “10% Foetal” for “100/Foetal”

The subject of series [3] is U87 cells. Nature of the series: Proliferation assay on U87 cells. The format is cell-based, human. The conditions noted are these: 72 h, viable cells vs untreated. The procedure: as §1, §2
Another series has as its system K562 cells. Nature of the series: Antiproliferative activity on human cell line K562. The format is cell-based. The conditions noted are these: Homo sapiens, K562, read-out: Cellular Data (IC50, μM) K562.
The target in a further series is recombinant Fyn (Homo sapiens, UniProt P06241). Kind of series: Enzymatic assay on isolated Fyn kinase. The settings on record: read-out: Enzymatic Data (Ki, μM) Fyn.
recombinant Fyn, sequence (P06241 whole entry, looked up): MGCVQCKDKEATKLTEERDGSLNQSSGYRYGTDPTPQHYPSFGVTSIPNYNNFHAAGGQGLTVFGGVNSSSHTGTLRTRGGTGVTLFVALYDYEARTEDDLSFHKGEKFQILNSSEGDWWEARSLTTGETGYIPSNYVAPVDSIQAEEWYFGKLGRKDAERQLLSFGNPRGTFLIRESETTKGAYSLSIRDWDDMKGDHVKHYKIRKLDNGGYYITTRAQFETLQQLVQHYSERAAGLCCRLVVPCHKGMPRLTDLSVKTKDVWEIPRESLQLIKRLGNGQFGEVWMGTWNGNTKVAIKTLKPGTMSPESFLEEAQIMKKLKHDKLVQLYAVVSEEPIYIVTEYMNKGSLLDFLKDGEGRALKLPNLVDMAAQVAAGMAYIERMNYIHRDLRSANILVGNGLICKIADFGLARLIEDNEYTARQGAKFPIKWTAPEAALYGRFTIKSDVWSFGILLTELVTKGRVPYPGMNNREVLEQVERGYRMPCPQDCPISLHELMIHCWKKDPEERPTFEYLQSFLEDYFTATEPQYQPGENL
The target in another series is T1, Recombinant human Abl (Homo sapiens, UniProt P00519).
T1 construct: purchased Upstate
T1 sequence (P00519 whole entry): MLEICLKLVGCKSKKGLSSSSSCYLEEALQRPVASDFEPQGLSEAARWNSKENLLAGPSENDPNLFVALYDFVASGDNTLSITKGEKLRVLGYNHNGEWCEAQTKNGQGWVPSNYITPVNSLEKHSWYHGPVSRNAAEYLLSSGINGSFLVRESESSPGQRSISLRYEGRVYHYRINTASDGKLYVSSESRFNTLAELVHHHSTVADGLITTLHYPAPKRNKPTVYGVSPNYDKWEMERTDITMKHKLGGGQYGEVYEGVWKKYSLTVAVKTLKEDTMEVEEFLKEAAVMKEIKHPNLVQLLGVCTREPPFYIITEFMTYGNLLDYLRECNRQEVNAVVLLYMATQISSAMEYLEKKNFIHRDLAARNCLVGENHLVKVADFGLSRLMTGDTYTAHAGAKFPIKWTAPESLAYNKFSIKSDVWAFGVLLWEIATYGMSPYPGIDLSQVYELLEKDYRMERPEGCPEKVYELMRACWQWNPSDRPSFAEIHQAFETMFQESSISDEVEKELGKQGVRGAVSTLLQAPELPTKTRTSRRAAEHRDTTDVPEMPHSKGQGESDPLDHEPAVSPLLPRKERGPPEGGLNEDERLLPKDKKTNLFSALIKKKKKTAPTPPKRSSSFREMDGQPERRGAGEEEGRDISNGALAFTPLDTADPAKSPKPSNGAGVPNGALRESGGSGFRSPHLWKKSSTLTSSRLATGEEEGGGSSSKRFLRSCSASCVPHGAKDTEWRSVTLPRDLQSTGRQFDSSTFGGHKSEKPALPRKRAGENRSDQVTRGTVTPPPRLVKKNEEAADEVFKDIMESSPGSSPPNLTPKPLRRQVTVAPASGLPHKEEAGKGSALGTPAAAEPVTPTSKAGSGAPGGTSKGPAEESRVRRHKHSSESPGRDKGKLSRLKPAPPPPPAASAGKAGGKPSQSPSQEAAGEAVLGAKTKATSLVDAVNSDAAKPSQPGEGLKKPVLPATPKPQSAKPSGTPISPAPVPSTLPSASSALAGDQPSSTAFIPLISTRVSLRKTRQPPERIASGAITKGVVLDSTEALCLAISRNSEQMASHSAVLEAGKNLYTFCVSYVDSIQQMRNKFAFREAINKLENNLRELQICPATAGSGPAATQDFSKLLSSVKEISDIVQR
Nature of the series: Enzymatic assay on isolated Abl. The settings on record: mean of at least two experiments. The format is biochemical.

The next series concerns the target T2, Recombinant human Src (Homo sapiens, UniProt P12931).
T2 construct: purchased Upstate (Lake Placid, N.Y.)
Nature of the series: Enzymatic assay on isolated Src. The format is biochemical. The conditions noted are these: read-out: Ki c-Src.

Series [4] in a line: Stability tests in phosphate buffer and methanol. The format is physicochemical. The settings on record: 20° C., 48 h incubation.
Series [5] is described as follows: Enzymatic stability in human plasma. The format is in vitro ADME. The settings on record: for half-life at 100 μM: human, pooled human plasma diluted with phosphate buffer, pH 7.4.
Series [6] in a line: In vivo pharmacokinetics / biodistribution. Also on record: species or system mice. The settings on record: 50 mg/Kg i.p.; for Quantity of Compound, BLOOD / Quantity of Compound, BRAIN: administered compound itself, BALB/C mice.
Experimental: The animal protocols used were reviewed and approved by the Animal Care and Ethics Committee of the Universita{grave over ( )} degli Studi di Siena, Italy. Male BALB/C mice (weight 20-30 g) were obtained from Charles River (Milan, Italy). […] The blood, previously heparinized, was centrifuged at 4000 rpm for 20 minutes to separate the plasma fraction and then 500 μl were collected in a test tube. […] Samples were centrifuged at 4000 rpm for 20 minutes, the supernatant was recovered, dried under vacuum and analyzed by LC-UV-MS. Brain was homogenized using a glass/glass Potter-Elvehjem homogenizer in presence of Tris-HCl buffer (50 mM) and compounds were recovered using 7 mL of ACN then treated as previously described for blood samples.
In series [7] the test system is U87 cells. Nature of the series: Orthotopic mouse model of GBM. The format is in vivo, mice. The settings on record: 50 mg/kg three times per week for 4 weeks.
Experimental: Survival curves (days) of orthotopic mouse model of GBM.
Male CD1 nude mice (Charles River, Milan, Italy) were maintained under the guidelines established by University of L'Aquila, Medical School and Science and Technology School Board Regulations, complying with the Italian government regulations for the use of laboratory animals. Before any invasive manipulation, mice were anesthetized with a mixture of ketamine (25 mg/ml)/xylazine (5 mg/ml). Tumor grafts were obtained by injecting with a Hamilton syringe mounted on a stereotactic instrument, 2*10^3 U87 cells resuspended in 2 microL PBS (David Kopf Instruments, CA, USA). The cells were injected after the exposition of periosteal cranic site and the drimming of a 1 mm diameter hole localized at 4 mm from striatum and with a depth of 4 mm. The wound was treated with antibiotics and was surgically sutured.
Where [8] appears, read: methanol, read-out: Stability MeOH t1/2.
Setting [9] is: phosphate buffer, pH 7.4, read-out: Stability PBS pH 7.4 t1/2.
[10] abbreviates: 37° C., read-out: Stability Human Plasma t1/2 (converted).

T2 sequence (P12931 whole entry): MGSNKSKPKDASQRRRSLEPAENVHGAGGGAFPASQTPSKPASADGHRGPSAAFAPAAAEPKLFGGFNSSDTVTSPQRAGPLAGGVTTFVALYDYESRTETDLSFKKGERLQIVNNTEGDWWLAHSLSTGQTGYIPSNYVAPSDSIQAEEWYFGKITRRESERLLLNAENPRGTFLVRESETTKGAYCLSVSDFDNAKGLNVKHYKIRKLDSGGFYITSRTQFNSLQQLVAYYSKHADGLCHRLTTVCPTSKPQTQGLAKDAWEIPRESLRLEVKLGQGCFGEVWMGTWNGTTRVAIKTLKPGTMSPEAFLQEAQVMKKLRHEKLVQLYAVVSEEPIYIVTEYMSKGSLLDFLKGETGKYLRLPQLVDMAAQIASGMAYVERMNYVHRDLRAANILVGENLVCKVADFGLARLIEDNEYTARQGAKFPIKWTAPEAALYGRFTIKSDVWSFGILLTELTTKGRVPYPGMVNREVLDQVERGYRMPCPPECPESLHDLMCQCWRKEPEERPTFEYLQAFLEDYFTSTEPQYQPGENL
Experimental for K562 cells: In vitro experiments were carried out using the human Chronic Myelogeneous Leukemia cell line K562. Cells were purchased from American Type Culture Collection (ATCC, Manassas, Va., USA) and were cultured in RPMI medium supplemented with 10% Foetal Bovine Serum. […] Cell number and vitality were evaluated using the automatic cell counter NucleoCounteri (Chemometec, Denmark). Results from the NucleoCounter represented either total or non-viable cell concentration, depending on the sample preparation indicated by manufacturer.
In vitro experiments were carried out using the human Chronic Myelogeneous Leukemia cell line K562. Cells were purchased from American Type Culture Collection (ATCC, Manassas, Va., USA) and were cultured in RPMI medium supplemented with 10% Foetal Bovine Serum. […] Cell number and vitality were evaluated using the automatic cell counter NucleoCounter® (Chemometec, Denmark). Results from the NucleoCounter represented either total or non-viable cell concentration, depending on the sample preparation indicated by manufacturer.
Experimental for PAMPA, BBB permeability: as §4, §5, §6, §7, §8, §9, §10
Experimental for Recombinant human Abl: Recombinant human Abl was purchased from Upstate.
Activity was measured in a filter binding assay using an Abl specific peptide substrate (Abtide, Upstate).
Text for Recombinant human Src: Recombinant human Src was purchased from Upstate (Lake Placid, N.Y.).
Experimental for Water solubility assay: Each solid compound (1 mg) was added to 1 mL of water. […] The suspensions were filtered through a 0.45 μm nylon filter (Acrodisc), and the solubilized compound determined by LC-MS-MS assay. For each compound the determination was performed in triplicate. […] The flow rate was 0.2 mL min-^−1 and injection volume was 5 μL. The instrument operated in positive mode and parameters were: detector 1850 V, drying gas pressure 25.0 psi, desolvation temperature 300.0° C., nebulizing gas 40.0 psi, needle 5000 V and shield 600 V. Nitrogen was used as nebulizer gas and drying gas.
Solid compound (1 mg) was added to 1 mL of water. […] The suspensions were filtered through a 0.45-μm nylon filter (Acrodisc), and the solubilised compound determined by LC-UV-MS assay. The determination was performed in triplicate.
Chromatographic analysis was performed with the method above reported and quantification of compounds was made by comparison with apposite calibration curves realized with standard solutions in methanol.
Experimental for recombinant Fyn: Kinase assays were performed in presence of 200 μM ATP and 100 μM peptide substrate. All inhibition assays were conducted with 0.01 μg active kinase, 0.33 μmol [^γ32P]ATP, 60 mM HEPES-NaOH pH 7.5, 3 μM Na-orthovanadate, 1.2 mM DTT, 50 μg/ml PEG20.0000, 10 mM magnesium acetate, 0.004% NP40 and 10% DMSO in a final volume of 10 μL. Fyn and inhibitors were preincubated in ice for 5 min; after addition of the substrates the reaction was conducted at 30° C. for 10 min. The reaction was stopped by adding 5 μL of 3% phosphoric acid. Aliquots (10 μL) were then transferred into a P30 Filtermat (PerkinElmer), washed five times with 75 mM phosphoric acid and once with acetone for 5 minute. The filter was dried and transferred to a sealable plastic bag, and scintillation cocktail (4 mL) was added. Spotted reactions were read in a MicroBeta Liquid (Perkinelmer) scintillation counter. The ID50 values were obtained according to the following equation:
Ki values toward recombinant Fyn were calculated using the equation:
according to a competitive mechanism of inhibition toward ATP substrate, where [SATP] is the concentration of ATP. Curve fitting was performed with the program GraphPad Prism version 5.00.

One may read the IC50 as the point on the concentration scale where inhibition reaches its midpoint. As for `CSc1nc(Nc2cccc(Br)c2)c2cnn(CC(C)c3ccccc3)c2n1` (centres unmarked) [Si278, N-(3-bromophenyl)-6-(methylthio)-1-(2-phenylpropyl)-H-pyrazolo[3,4-d]pyrimidin-4-amine], the results for the IC50 in the series with U251 cells, in the series on SH-SY5Y cells and with U87 cells [3] were 3.7 µM, 1.2 µM and 5.8 µM, respectively. Also, the “PAMPA BBB” value in “PAMPA, BBB permeability” (Blood Brain Barrier PAMPA) is reported as 0.50 10^−6 cm · sec^−1. The “PAMPA BBB (MR %)” value in the series “PAMPA, BBB permeability” was “(66.3) %”. Besides, the “PAMPA GI” value in [1] (Gastrointestinal PAMPA, Table 8) was 0 10^−6 cm · sec^−1. Moreover, the “PAMPA GI (MR %)” value in series [1] is given as “(80.4) %”. Besides, the “H2O Sol. (Log S)” value in “Water solubility assay” (Table 8) is reported as “(<−7.60) log mol · L^−1”. Besides, in the series “Water solubility assay”, the “H2O Sol.” value was <0.01 µg/mL. The “Metabolic Stab. %” value in series [2] came to 95.1%.

By melting point is commonly meant the temperature, or range, at which the solid turns liquid. The Ki is a measure of affinity in units of concentration, obtained from inhibition or displacement. Compound `Nc1ncnc2c1c(-c1ccc(F)cc1)nn2CC(Cl)c1ccccc1` (centres unmarked) [Si310, 1-(2-Chloro-2-phenylethyl)-3-(4-fluorophenyl)-1H-pyrazolo[3,4-d]pyrimidin-4-amine] registered a melting point of 203 to 206 °C. For the same compound, the IC50 in the series on K562 cells was 12.6 ± 14.8 µM. Besides, the Ki on recombinant Fyn came to 0.36 µM.

One may read the Papp as a coefficient for how fast a substance crosses the barrier. `Oc1cccc(Nc2nc(SC3CCCC3)nc3c2cnn3CC(Cl)c2ccccc2)c1` (centres unmarked) [Si330]: the Papp in series [1] (PAMPA, Table 6) is reported as 3.91 10^−6 cm/sec. In addition, in the series “Water solubility assay” (Table 6), the “H2O Solubility” value amounted to 0.6 µg/mL. In addition, the “Metabolic Stab.” value in series [2] (percentage of unmodified parent drug, human liver microsomes 60 min) amounted to 91%. The Ki at Recombinant human Abl amounted to 0.15 µM; at Recombinant human Src it was 0.007 µM.

For the compound `CCCCN(C(=O)OCCN1CCN(C)CC1)c1nc(SCC)nc2c1cnn2CC(Cl)c1ccccc1` (centres unmarked) [proSi20, 2-(4-Methylpiperazin-1-yl)ethyl butyl(1-(2-chloro-2-phenylethyl)-6-(ethylthio)-1H-pyrazolo[3,4-d]pyrimidin-4-yl)carbamate], the IC50 worked out at 0.8 µM with U251 cells (Homo sapiens, U-251); 0.3 µM in the series on SH-SY5Y cells (Homo sapiens, SH-SY5Y); 3.6 µM in the series on U87 cells [3] (Homo sapiens, U-87 MG).

In general, solubility refers to the concentration that dissolves in the medium under given conditions. For orientation: solubility (thermodynamic) means the concentration in solution at equilibrium with solid. With `CN1CCN(CCOC(=O)N(c2ccccc2)c2ncnc3c2cnn3CC(Cl)c2ccc(Br)cc2)CC1` (centres unmarked) [proSi223, 2-(4-Methylpiperazin-1-yl)ethyl (1-(2-(4-bromophenyl)-2-chloroethyl)-H-pyrazolo[3,4-d]pyrimidin-4-yl)(phenyl)carbamate], the IC50 is 4.7 µM in the series on U251 cells (Homo sapiens, U-251); 12.6 µM in the series with SH-SY5Y cells (Homo sapiens, SH-SY5Y); 5.1 µM with U87 cells [3] (Homo sapiens, U-87 MG). In addition, in the series “PAMPA, BBB permeability”, the “PAMPA BBB (MR %)” value is “(24.9) %”. Further, the apparent permeability (Papp) at 5 h, 0.5 mM in “PAMPA, BBB permeability” worked out at 6.97 ×10⁻⁶ cm/s; in series [1] (PAMPA) it was 9.91 ×10⁻⁶ cm/s. In addition, in series [1], the “PAMPA GI (MR %)” value is on record as “(16.0) %”. In “Water solubility assay”, the solubility at 24 h is 70.8 µM (≈ 42.4 µg/mL). Besides, in the series “Water solubility assay”, the solubility (thermodynamic) at 24 h was 41.6 µg/mL (≈ 69.4 µM). In addition, the half-life at 500 μM in series [4] (setting [8]) and in series [4] (setting [9]) was > 48 h throughout. Further, in [5] (setting [10]), the half-life at 100 μM was 4.47 h.

For `CSc1nc(N(C(=O)OCCN2CCN(C)CC2)c2cccc(Br)c2)c2cnn(CC(C)c3ccccc3)c2n1` (centres unmarked) [proSi278 (A), 2-(4-Methylpiperazin-1-yl)ethyl (3-bromophenyl)(6-(methylthio)-1-(2-phenylpropyl)-1H-pyrazolo[3,4-d]pyrimidin-4-yl)carbamate], the half-maximal inhibitory concentration (IC50) in the series with U251 cells (Homo sapiens, U-251) was 5.2 µM; in the series on SH-SY5Y cells (Homo sapiens, SH-SY5Y) it was 0.4 µM; with U87 cells [3] (Homo sapiens, U-87 MG), 6.3 µM. The “PAMPA BBB (MR %)” value in the series “PAMPA, BBB permeability” is recorded as “(49.8) %”. For the same compound, the Papp at 5 h, 0.5 mM in the series “PAMPA, BBB permeability” was determined as 1.89 ×10⁻⁶ cm/s; in [1] (PAMPA), 2.11 ×10⁻⁶ cm/s. In series [1], the “PAMPA GI (MR %)” value was “(67.0) %”. Further, in the series “Water solubility assay”, the “H2O Sol.” value was found to be 6.47 µg/mL. The same compound came in with a solubility at 24 h in “Water solubility assay” of 11.5 µM (≈ 7.17 µg/mL). Also, the “Metabolic Stab. %” value in series [2] was 99.9%. Also, the half-life at 500 μM in [4] (setting [8]) and in series [4] (setting [9]) was > 48 h throughout. Besides, in series [5] (37° C.), the “Stability Human Plasma t1/2” value is 3.21 h. Besides, the half-life at 100 μM in [5] (read-out: t1/2 in human plasma (converted)) is 3.21 h.

`CN1CCN(CCOC(=O)N(c2cccc(Br)c2)c2nc(SCCN3CCOCC3)nc3c2cnn3CC(Cl)c2ccccc2)CC1` (centres unmarked) [proSi306]: in the series “PAMPA, BBB permeability”, the “PAMPA BBB (MR %)” value was “(42.0) %”. Besides, the Papp at 5 h, 0.5 mM was determined as 2.91 ×10⁻⁶ cm/s in “PAMPA, BBB permeability” and 2.13 ×10⁻⁶ cm/s in series [1] (PAMPA). Also, the “PAMPA GI (MR %)” value in series [1] was “(45.5) %”. Further, the “brain concentration with respect to the drug” value in [6] was “higher brain concentration”. In addition, the “Quantity of Compound, BLOOD” value is 10.7 ± 1.11 nmol of compound/g of tissue in [6] (15′); 8.9 ± 1.22 nmol of compound/g of tissue in [6] (30′); 11.4 ± 1.29 nmol of compound/g of tissue in series [6] (1 h); 7.2 ± 2.17 nmol of compound/g of tissue in series [6] (2 h); 6.5 ± 0.58 nmol of compound/g of tissue in series [6] (4 h); 6.2 ± 2.07 nmol of compound/g of tissue in series [6] (8 h). The “Quantity of Compound, BLOOD” value was 3.7 ± 0.60 nmol of compound/g of tissue in series [6] (24 h) and 8.3 ± 2.21 nmol of compound/g of tissue in [6] ([…]). Moreover, the “Quantity of Compound, BRAIN” value is 5.3 ± 1.5 nmol of compound/g of tissue in series [6] (15′); 3.4 ± 0.33 nmol of compound/g of tissue in [6] (30′); 3.4 ± 2.24 nmol of compound/g of tissue in series [6] (1 h); 2.8 ± 0.60 nmol of compound/g of tissue in series [6] (2 h); 2.9 ± 1.38 nmol of compound/g of tissue in series [6] (4 h); 3.6 ± 2.12 nmol of compound/g of tissue in [6] (8 h). Further, the “Quantity of Compound, BRAIN” value was 6.6 ± 1.08 nmol of compound/g of tissue in [6] (24 h) and 2.4 ± 0.24 nmol of compound/g of tissue in series [6] ([…]). In addition, the concentration in solution in “Water solubility assay” (solubility at 24 h) came to 11.7 µM (≈ 8.74 µg/mL). Further, in “Water solubility assay”, the solubility (thermodynamic) at 24 h was 8.7 µg/mL (≈ 11.7 µM). For the same compound, the half-life at 500 μM in [4] (setting [8]) and in [4] (setting [9]) was > 48 h throughout. For the same compound, the half-life at 100 μM in series [5] (setting [10]) is 3.48 h. Also, the “survival of mice respect to control group” value in the series with U87 cells [7] is on record as “significant ability in prolonging survival”.

For the origin of these results see US20180186796A1, “COMPOUNDS AND USES THEREOF” (LEAD DISCOVERY SIENA S.R.L., priority 2014, published 2018).
